Publication PMC12090182, “Repurposing of the RIPK1-Selective Benzo[1,4]oxazepin-4-one Scaffold for the Development of a Type III LIMK1/2 Inhibitor” (ACS Chemical Biology, 2025)

How the values were obtained:
LIMK1 = LIMK1 (Homo sapiens, UniProt P53667); test: NanoBRET cellular target engagement; type: cell-based; set-up: purchased Carna Biosciences; details: LIMK1, HEK293T cells
Protocol: (§1) The assay was performed as described previously.[31],[32] In brief, full-length LIMK1/2, RIPK1, BTK, and LRRK2 cloned in a frame in a NanoLuc-vector (Promega) were transfected into HEK293T cells (ATCC CRL-1573) using FuGENE HD (Promega, E2312), and proteins were allowed to express for 20 h. The serially diluted inhibitor and NanoBRET Kinase Tracer (Promega) used at the previously determined Tracer KD,app (Table S1) were pipetted into white 384-well plates (Greiner 781 207) using an ECHO 550 acoustic dispenser (Labcyte). The corresponding transfected cells were added and reseeded at a density of 2 × 10^5 cells/mL after trypsinization and resuspension in Opti-MEM without phenol red (Life Technologies). The system was allowed to equilibrate for 2 h at 37 °C and 5% CO2 prior to BRET measurements. To measure BRET, a NanoBRET Nano-Glo substrate and an extracellular NanoLuc inhibitor (Promega, N2160) were added as per the manufacturer's protocol, and filtered luminescence was measured on a PHERAstar plate reader (BMG Labtech) equipped with a luminescence filter pair (a 450 nm BP filter (donor) and a 610 nm LP filter (acceptor)). Competitive displacement data were then plotted using GraphPad Prism 10 software using a normalized three-parameter curve fit with the following equation: Y = 100/( [drawing 1] ).

LIMK2 = LIMK2 (Homo sapiens, UniProt P53671); test: NanoBRET cellular target engagement; type: cell-based; set-up: full-length LIMK1/2, RIPK1, BTK, and LRRK2 cloned in a frame in a NanoLuc-vector (Promega); host or cells: HEK293T; details: LIMK2, HEK293T cells
Sequence of LIMK2 (P53671 whole entry): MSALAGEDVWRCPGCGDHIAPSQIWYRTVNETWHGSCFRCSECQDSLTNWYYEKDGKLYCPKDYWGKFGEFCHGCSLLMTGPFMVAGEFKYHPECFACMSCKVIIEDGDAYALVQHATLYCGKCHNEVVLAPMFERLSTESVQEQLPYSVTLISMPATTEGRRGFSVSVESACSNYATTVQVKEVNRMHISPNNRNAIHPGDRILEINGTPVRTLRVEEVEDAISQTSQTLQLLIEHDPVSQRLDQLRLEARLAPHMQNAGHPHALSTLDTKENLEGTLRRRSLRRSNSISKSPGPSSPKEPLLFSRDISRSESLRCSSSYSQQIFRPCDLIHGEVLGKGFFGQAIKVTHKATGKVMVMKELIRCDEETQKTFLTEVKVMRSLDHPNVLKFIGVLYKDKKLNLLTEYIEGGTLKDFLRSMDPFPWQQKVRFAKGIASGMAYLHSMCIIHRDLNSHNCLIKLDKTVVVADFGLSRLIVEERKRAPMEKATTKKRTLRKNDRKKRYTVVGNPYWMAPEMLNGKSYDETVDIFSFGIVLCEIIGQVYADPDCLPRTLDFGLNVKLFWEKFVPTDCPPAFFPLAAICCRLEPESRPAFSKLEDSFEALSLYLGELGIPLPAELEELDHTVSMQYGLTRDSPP
Protocol: as §1

Sequence of LIMK1 (P53667 whole entry): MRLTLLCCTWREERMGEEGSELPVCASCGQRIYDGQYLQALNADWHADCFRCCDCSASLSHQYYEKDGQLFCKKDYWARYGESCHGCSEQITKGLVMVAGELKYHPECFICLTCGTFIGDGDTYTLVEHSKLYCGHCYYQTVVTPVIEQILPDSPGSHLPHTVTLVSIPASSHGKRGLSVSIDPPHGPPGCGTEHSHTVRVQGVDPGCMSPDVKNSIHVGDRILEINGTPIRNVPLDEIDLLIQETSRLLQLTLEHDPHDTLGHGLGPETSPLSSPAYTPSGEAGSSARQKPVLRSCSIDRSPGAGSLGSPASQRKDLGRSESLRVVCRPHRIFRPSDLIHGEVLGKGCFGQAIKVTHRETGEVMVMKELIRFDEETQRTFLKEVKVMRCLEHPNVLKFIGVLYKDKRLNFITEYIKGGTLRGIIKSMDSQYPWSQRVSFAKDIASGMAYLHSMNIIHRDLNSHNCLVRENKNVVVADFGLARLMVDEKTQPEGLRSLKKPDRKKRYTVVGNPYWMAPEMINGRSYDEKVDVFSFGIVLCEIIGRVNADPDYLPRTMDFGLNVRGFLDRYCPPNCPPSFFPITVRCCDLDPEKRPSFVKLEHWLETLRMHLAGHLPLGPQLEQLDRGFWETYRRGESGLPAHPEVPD

EC50 (LIMK1): 42 µM | EC50 (LIMK2): 38 µM
SMILES: CN1C(=O)[C@@H](N2CCc3cn(Cc4ccccc4)nc3C2=O)COc2ccccc21 [TP-030-1]
